Results on 15 molecules are retold here after patent US20220402948A1, “EGFR INHIBITOR, COMPOSITION AND PREPARATION METHOD THEREFOR” (BETTA PHARMACEUTICALS CO., LTD., priority 2019, published 2022).

One experiment has as its target EGFRΔ19del/T790M/C797S (Homo sapiens, UniProt P00533, T790M/C797S, form not given). The experiment is described as follows: EGFR Δ19del/T790M/C797S kinase test (mobility variation analysis, Caliper EZ Reader). The following applies: kinase enzymatic activity, Table 1. The experiment is classed as biochemical. The method, boiled down:
(§1)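 Read-out is substrate-to-product conversion by mobility shift, stopped after incubation at room temperature with ATP and substrate, following a 10-minute room-temperature compound–enzyme pre-incubation. IC50 obtained by four-parameter variable-slope fitting of inhibition normalized between enzyme-free and uninhibited controls.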

Another experiment addresses EGFR WT (Homo sapiens, UniProt P00533). Description: EGFR WT kinase test (mobility variation analysis, Caliper EZ Reader). The experiment is classed as biochemical. The following applies: kinase enzymatic activity, Table 1. The method, boiled down:
as §1

The next experiment concerns the target IGF1R (Homo sapiens, UniProt P08069). Description: IGF1R kinase test (mobility variation analysis, Caliper EZ Reader). The following applies: kinase enzymatic activity, Table 1; read-out: EGFR IGF1R IC50. The experiment is classed as biochemical. The method, boiled down:
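Mobility-shift readout of substrate conversion, normalised to positive (no compound) and negative (no kinase) controls, gives % inhibition and IC50 by four-parameter fit. Compounds, 3-fold dilutions over 10 concentrations starting at 3000 nM, preincubated 10 min with kinase before ATP/substrate start; room temperature.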

In experiment [1] the target is Ba/F3 cells with EGFR Δ19del/T790M/C797S mutation gene stably overexpressed (Homo sapiens, UniProt P00533, T790M/C797S, cells depend on it, form not given). The experiment is described as follows: Ba/F3-Δ19del/T790M/C797S cell proliferation assay (CellTiter Glo, 72 hours). The experiment is classed as cell-based. The following applies: Table 2, read-out: EGFR Δ19del/T790M/C797S IC50. The method, boiled down:
(§2)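 Ba/F3 cells stably overexpressing wild-type EGFR or EGFR Δ19del/T790M/C797S were seeded at 2000 cells/well and incubated 72 h with compound. Viability was read by CellTiter-Glo luminescence, and IC50 came from a four-parameter logistic fit of signal against log concentration.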

Experiment [2] has as its target Ba/F3-EGFR wild-type cell line (Homo sapiens, UniProt P00533). Description: Ba/F3-EGFR wild-type cell proliferation assay (CellTiter Glo, 72 hours). The experiment is classed as cell-based. The following applies: Table 2, read-out: EGFR WT IC50. A digest of the protocol: as §2
In another experiment the test system is A431. Description: A431 cell proliferation assay (CellTiter Glo, 72 hours). As to conditions: Homo sapiens, A-431, 72 h, cell proliferation, A431, 72 hours, Table 2; read-out: A431 IC50. The experiment is classed as cell-based. A digest of the protocol:
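Luminescence (CellTiter-Glo) after 72 h treatment gives viability, fitted by nonlinear regression to yield IC50. Cells seeded at 2000 per well; nine 3-fold concentrations from 1000 nM, DMSO final 0.1% (0.5% for certain compounds).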

Sequence of EGFRΔ19del/T790M/C797S (P00533 with tags, fused parts or gaps DEL746-750/T790M/C797S, form open): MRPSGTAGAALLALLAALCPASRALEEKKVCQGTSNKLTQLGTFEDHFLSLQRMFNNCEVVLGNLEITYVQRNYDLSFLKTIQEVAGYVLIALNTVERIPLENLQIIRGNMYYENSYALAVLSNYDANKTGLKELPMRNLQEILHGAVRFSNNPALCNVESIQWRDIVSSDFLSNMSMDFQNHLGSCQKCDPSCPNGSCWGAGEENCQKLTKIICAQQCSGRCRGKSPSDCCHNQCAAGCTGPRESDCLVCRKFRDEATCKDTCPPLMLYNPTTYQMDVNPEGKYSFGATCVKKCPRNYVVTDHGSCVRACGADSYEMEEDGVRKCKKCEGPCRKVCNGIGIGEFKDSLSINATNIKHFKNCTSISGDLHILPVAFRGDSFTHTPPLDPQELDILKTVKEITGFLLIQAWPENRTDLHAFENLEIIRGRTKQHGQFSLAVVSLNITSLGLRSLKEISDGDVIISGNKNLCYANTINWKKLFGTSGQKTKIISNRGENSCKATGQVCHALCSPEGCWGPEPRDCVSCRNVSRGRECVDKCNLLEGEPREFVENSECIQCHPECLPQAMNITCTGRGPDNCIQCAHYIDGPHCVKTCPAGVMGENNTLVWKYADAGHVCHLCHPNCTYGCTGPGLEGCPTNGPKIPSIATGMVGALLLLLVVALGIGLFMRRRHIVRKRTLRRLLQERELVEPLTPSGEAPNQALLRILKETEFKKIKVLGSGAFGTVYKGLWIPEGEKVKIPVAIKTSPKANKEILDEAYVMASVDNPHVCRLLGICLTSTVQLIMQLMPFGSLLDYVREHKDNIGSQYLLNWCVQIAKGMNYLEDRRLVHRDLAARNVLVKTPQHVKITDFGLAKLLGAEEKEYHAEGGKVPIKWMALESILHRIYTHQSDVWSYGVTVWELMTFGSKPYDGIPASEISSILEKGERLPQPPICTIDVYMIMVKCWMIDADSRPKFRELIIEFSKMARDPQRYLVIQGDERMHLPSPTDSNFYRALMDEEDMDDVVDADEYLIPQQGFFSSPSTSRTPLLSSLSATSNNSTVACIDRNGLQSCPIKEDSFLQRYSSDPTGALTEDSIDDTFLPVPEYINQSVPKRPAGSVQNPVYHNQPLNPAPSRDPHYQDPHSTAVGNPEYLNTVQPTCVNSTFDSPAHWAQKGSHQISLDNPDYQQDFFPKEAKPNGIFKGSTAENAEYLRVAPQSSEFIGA
Sequence of Ba/F3 cells with EGFR Δ19del/T790M/C797S mutation gene stably overexpressed (P00533 with tags, fused parts or gaps DEL746-750/T790M/C797S, form open): as above
Sequence of IGF1R (P08069 31-1367, species assumed): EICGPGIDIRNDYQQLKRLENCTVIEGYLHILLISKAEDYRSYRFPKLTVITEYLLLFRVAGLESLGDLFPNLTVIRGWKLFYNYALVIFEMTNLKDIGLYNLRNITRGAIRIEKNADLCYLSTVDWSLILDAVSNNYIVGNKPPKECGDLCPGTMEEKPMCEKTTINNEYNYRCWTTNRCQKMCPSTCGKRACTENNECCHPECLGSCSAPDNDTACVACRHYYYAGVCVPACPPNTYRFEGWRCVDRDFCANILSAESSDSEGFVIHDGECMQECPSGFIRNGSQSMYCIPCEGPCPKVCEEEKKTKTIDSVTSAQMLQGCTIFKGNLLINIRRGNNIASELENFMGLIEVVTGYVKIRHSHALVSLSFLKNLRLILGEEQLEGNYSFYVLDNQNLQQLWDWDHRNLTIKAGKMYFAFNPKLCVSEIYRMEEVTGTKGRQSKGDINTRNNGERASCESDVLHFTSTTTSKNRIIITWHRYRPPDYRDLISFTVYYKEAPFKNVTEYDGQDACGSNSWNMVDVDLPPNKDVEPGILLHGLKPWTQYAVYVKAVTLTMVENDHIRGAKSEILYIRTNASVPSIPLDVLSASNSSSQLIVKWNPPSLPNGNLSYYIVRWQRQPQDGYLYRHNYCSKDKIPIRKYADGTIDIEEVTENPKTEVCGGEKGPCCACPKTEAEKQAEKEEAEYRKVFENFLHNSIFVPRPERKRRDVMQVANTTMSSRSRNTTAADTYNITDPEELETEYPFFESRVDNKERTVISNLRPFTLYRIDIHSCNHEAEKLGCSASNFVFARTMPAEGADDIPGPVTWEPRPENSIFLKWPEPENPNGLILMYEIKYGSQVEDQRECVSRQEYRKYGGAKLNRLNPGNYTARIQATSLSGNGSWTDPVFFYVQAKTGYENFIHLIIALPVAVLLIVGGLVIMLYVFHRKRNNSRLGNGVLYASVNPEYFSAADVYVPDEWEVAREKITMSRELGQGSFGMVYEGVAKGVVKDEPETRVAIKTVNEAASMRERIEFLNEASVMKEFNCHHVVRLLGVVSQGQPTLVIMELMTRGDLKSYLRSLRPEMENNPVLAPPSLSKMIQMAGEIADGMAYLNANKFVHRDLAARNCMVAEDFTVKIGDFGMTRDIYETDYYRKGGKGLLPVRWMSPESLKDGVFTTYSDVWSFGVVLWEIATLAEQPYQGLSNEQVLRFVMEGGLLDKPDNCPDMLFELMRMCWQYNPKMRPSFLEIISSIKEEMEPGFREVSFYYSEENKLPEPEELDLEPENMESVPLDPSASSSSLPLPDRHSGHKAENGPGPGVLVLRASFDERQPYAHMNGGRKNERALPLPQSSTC
Sequence of Ba/F3-EGFR wild-type cell line (P00533 whole entry, change not shown): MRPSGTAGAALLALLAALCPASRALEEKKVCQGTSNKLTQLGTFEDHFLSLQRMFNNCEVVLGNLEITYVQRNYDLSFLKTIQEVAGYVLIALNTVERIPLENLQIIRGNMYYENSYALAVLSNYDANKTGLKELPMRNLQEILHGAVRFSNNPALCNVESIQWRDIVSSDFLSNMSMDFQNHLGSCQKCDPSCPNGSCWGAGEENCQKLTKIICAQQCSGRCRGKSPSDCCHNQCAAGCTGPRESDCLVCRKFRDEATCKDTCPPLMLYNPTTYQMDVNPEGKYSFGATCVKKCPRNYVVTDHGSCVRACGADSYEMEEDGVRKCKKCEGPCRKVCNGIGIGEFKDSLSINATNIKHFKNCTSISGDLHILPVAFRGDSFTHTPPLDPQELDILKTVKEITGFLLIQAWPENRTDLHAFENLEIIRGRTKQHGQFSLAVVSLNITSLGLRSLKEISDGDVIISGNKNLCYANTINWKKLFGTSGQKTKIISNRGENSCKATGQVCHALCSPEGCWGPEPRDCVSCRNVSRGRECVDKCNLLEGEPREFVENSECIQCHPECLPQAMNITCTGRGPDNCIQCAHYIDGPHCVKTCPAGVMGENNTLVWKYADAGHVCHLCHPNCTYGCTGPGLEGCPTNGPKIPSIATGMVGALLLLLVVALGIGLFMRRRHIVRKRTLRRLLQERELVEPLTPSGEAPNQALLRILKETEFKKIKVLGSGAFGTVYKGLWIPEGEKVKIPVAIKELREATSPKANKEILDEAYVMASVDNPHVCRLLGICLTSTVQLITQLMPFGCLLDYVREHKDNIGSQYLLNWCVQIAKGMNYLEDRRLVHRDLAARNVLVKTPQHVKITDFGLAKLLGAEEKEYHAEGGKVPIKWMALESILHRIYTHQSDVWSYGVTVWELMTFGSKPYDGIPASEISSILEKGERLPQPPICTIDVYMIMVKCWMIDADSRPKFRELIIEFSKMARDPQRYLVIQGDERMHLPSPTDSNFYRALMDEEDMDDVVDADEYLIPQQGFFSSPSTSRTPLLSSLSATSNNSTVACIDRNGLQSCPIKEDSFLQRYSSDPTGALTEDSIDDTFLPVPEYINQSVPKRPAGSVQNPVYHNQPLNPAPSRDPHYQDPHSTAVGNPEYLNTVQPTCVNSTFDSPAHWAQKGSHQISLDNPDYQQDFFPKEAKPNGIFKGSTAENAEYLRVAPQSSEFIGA

On to `C#Cc1ccc(-c2ccc(Nc3nc(Nc4cc(C)c(N5CCC(N6CCN(C)CC6)CC5)cc4OC)ncc3Br)c(P(C)(C)=O)c2)s1` [Compound K-016, (2-((5-Bromo-2-((2-methoxy-5-methyl-4-(4-(4-methylpiperazin-1-yl)piperidin-1-yl)phenyl)amino)pyrimidin-4-yl)amino)-5-(5-ethynylthiophen-2-yl)phenyl)dimethylphosphine oxide], for which the IC50 at EGFRΔ19del/T790M/C797S came to 0.5 nM; on EGFR WT, 13.1 nM; at IGF1R, 94 nM; with A431, 497 nM. Moreover, the GI50 in experiment [1] was 15.3 nM; in experiment [2] it was 145 nM.
As for `COc1cc(Nc2ncc(Br)c(Nc3ccc(-c4cnccn4)cc3P(C)(C)=O)n2)c(C)cc1N1CCC(N2CCN(C)CC2)CC1` [Compound K-017, (2-((5-Bromo-2-((5-methoxy-2-methyl-4-(4-(4-methylpiperazin-1-yl)piperidin-1-yl)phenyl)amino)pyrimidin-4-yl)amino)-5-(pyrazin-2-yl)phenyl)dimethylphosphine oxide], the IC50 on EGFRΔ19del/T790M/C797S stood at 0.5 nM; against EGFR WT, 14.4 nM; at IGF1R, 39.1 nM; in the experiment on A431 it was 812 nM. Besides, the GI50 came out at 12 nM in experiment [1] and 445 nM in experiment [2].
With `COc1cnn(-c2ccc(Nc3nc(Nc4cc(OC)c(N5CCC(N6CCN(C)CC6)CC5)cc4C)ncc3Br)c(P(C)(C)=O)c2)c1` [Compound K-018, (2-((5-Bromo-2-((5-methoxy-2-methyl-4-(4-(4-methylpiperazin-1-yl)piperidin-1-yl)phenyl)amino)pyrimidin-4-yl)amino)-5-(4-methoxy-1H-pyrazol-1-yl)phenyl)dimethylphosphine oxide], the IC50 amounted to 0.2 nM on EGFRΔ19del/T790M/C797S, 17.1 nM against EGFR WT, 67.2 nM on IGF1R and 1060 nM in the experiment with A431. The GI50 in experiment [1] amounted to 9.7 nM; in experiment [2], 295 nM.
With `COc1cc(Nc2ncc(Br)c(Nc3ccc(-c4nccs4)cc3P(C)(C)=O)n2)c(C)cc1N1CCC(N2CCN(C)CC2)CC1` [Compound K-019, (2-((5-Bromo-2-((5-methoxy-2-methyl-4-(4-(4-methylpiperazin-1-yl)piperidin-1-yl)phenyl)amino)pyrimidin-4-yl)amino)-5-(thiazol-2-yl)phenyl)dimethylphosphine oxide], the IC50 at EGFRΔ19del/T790M/C797S was 0.2 nM; against EGFR WT, 14.7 nM; at IGF1R, 33.1 nM; in the experiment with A431, 535 nM. In addition, the GI50 in experiment [1] is 16 nM; in experiment [2], 48.7 nM.
In the case of `CCc1cc(Nc2ncc(Br)c(Nc3ccc(-n4cc(OC)cn4)cc3P(C)(C)=O)n2)c(OC)cc1N1CCC(N2CCCCC2)CC1` [Compound K-020], the IC50 against EGFRΔ19del/T790M/C797S came to 0.3 nM; against EGFR WT, 22 nM; at IGF1R, 126 nM; with A431, 1130 nM. Besides, the values for the GI50 in experiment [1] and in experiment [2] were 9.2 nM and 226 nM, respectively.
`COc1cc(Nc2ncc(Br)c(Nc3ccc(-c4cnn(C)n4)cc3P(C)(C)=O)n2)c(C)cc1N1CCC(N2CCOCC2)CC1` [Compound K-021, (2-((5-Bromo-2-((5-methoxy-2-methyl-4-(4-morpholinopiperidin-1-yl)phenyl)amino)pyrimidin-4-yl)amino)-5-(2-methyl-2H-1,2,3-triazol-4-yl)phenyl)dimethylphosphine oxide]: the IC50 against EGFRΔ19del/T790M/C797S came to 0.3 nM; against EGFR WT, 8.4 nM; on IGF1R, 21.6 nM; in the experiment with A431, 3870 nM. The GI50 turned out to be 2.3 nM in experiment [1] and 84 nM in experiment [2].
For `COc1cc(Nc2ncc(Br)c(Nc3ccc(-c4cnccn4)cc3P(C)(C)=O)n2)c(C)cc1N1CCOCC1` [Compound K-022], the IC50 on EGFRΔ19del/T790M/C797S came out at 0.2 nM; against EGFR WT it was 31.8 nM; on IGF1R it was 52.5 nM; in the experiment with A431 it was 1460 nM. Also, the GI50 was determined as 16.5 nM in experiment [1] and 281 nM in experiment [2].
For the molecule `COc1cnn(-c2ccc(Nc3nc(Nc4cc(OC)c(N5CCOCC5)cc4C)ncc3Br)c(P(C)(C)=O)c2)c1` [Compound K-023, (2-((5-Bromo-2-((5-methoxy-2-methyl-4-morpholinophenyl)amino)pyrimidin-4-yl)amino)-5-(4-methoxy-1H-pyrazol-1-yl)phenyl)dimethylphosphine oxide], the IC50 on EGFRΔ19del/T790M/C797S was 0.2 nM; against EGFR WT it was 41.5 nM; at IGF1R, 136 nM; in the experiment with A431, 1280 nM. Besides, the GI50 in experiment [1] was 5 nM; in experiment [2], 89.5 nM.
For the molecule `COc1cc(Nc2ncc(Br)c(Nc3ccc(-c4nccs4)cc3P(C)(C)=O)n2)c(C)cc1N1CCOCC1` [Compound K-024, (2-((5-Bromo-2-((5-methoxy-2-methyl-4-morpholinophenyl)amino)pyrimidin-4-yl)amino)-5-(thiazol-2-yl)phenyl)dimethylphosphine oxide], the IC50 against EGFRΔ19del/T790M/C797S worked out at 0.3 nM; on EGFR WT it was 35 nM; at IGF1R it was 71.1 nM; in the experiment on A431, 601 nM. The results for the GI50 in experiment [1] and in experiment [2] were 15.6 nM and 172 nM, respectively.
For `COc1cc(Nc2ncc(Br)c(Nc3ccc(-c4cnn(C)n4)c(F)c3P(C)(C)=O)n2)c(C)cc1N1CCOCC1` [Compound K-025, (6-((5-Bromo-2-((5-methoxy-2-methyl-4-morpholinophenyl)amino)pyrimidin-4-yl)amino)-2-fluoro-3-(2-methyl-2H-1,2,3-triazol-4-yl)phenyl)dimethylphosphine oxide], the IC50 at EGFRΔ19del/T790M/C797S is 0.23 nM; against EGFR WT, 39 nM; at IGF1R, 69 nM; in the experiment with A431, > 10000 nM. Further, the GI50 worked out at 12.6 nM in experiment [1] and 220 nM in experiment [2].
Take `COc1cnn(-c2ccc(Nc3nc(Nc4cc(OC)c(N5CCOCC5)cc4C4CC4)ncc3Br)c(P(C)(C)=O)c2)c1` [Compound K-026, (2-((5-Bromo-2-((2-cyclopropyl-5-methoxy-4-morpholinophenyl)amino)pyrimidin-4-yl)amino)-5-(4-methoxy-1H-pyrazol-1-yl)phenyl)dimethylphosphine oxide]: the IC50 against EGFRΔ19del/T790M/C797S is 0.6 nM; against EGFR WT, 188 nM; at IGF1R it was 413 nM; with A431, > 10000 nM. The results for the GI50 in experiment [1] and in experiment [2] were 17.3 nM and 946 nM, respectively.
For `COc1cc(N2CCOCC2)c(C#N)cc1Nc1ncc(Br)c(Nc2ccc(-c3nccs3)cc2P(C)(C)=O)n1` [Compound K-027, 5-((5-Bromo-4-((2-(dimethylphosphineoxide)-4-(thiazol-2-yl)phenyl)amino)pyrimidin-2-yl)amino)-4-methoxy-2-morpholinobenzonitrile], the IC50 came out at 0.6 nM at EGFRΔ19del/T790M/C797S, 50.2 nM at EGFR WT, 364 nM on IGF1R and 4050 nM in the experiment with A431. Also, the GI50 in experiment [1] came to 12.9 nM; in experiment [2], 453 nM.
`COc1cnn(-c2ccc(Nc3nc(Nc4cc(OC)c(N5CCN(C)CC5)cc4C)ncc3Br)c(P(C)(C)=O)c2)c1` [Compound K-028, (2-((5-Bromo-2-((5-methoxy-2-methyl-4-(4-methylpiperazin-1-yl)phenyl)amino)pyrimidin-4-yl)amino)-5-(4-methoxy-1H-pyrazol-1-yl)phenyl)-dimethylphosphine oxide]: the IC50 against EGFRΔ19del/T790M/C797S came out at 0.1 nM; against EGFR WT it was 26 nM; on IGF1R it was 39.1 nM; in the experiment with A431, 1240 nM. Moreover, the GI50 in experiment [1] stood at 5.7 nM; in experiment [2], 226 nM.
Turning to `COc1cc(N2CCN(C)CC2)c(C)cc1Nc1ncc(Br)c(Nc2ccc(-c3nccs3)cc2P(C)(C)=O)n1` [Compound K-029, (2-((5-Bromo-2-((2-methoxy-5-methyl-4-(4-methylpiperazin-1-yl)phenyl)amino)pyrimidin-4-yl)amino)-5-(thiazol-2-yl)phenyl)dimethylphosphine oxide], the IC50 amounted to 0.3 nM against EGFRΔ19del/T790M/C797S, 60.6 nM on EGFR WT, 91 nM on IGF1R and 3180 nM in the experiment on A431. In addition, the GI50 was determined as 15.2 nM in experiment [1] and 52.1 nM in experiment [2].
As for `COc1cc(Nc2ncc(Br)c(Nc3ccc(-c4cnn(C)c4)cc3P(C)(C)=O)n2)c(C)cc1N1CCOCC1` [Compound K-030, (2-((5-Bromo-2-((5-methoxy-2-methyl-4-morpholinophenyl)amino)pyrimidin-4-yl)amino)-5-(1-methyl-1H-pyrazol-4-yl)phenyl)dimethylphosphine oxide], the IC50 at EGFRΔ19del/T790M/C797S was determined as 0.2 nM; against EGFR WT, 7.8 nM; at IGF1R, 21.5 nM; with A431, 615 nM. For the same molecule, the GI50 in experiment [1] was 3.6 nM; in experiment [2] it was 132 nM.
